According to US20190365927A1, “COMPOSITION FOR PHOTODYNAMIC THERAPY USING GENE EXPRESSING FLUORESCENT PROTEIN AND PHOTOSENSITIZER, AND PHOTODYNAMIC THERAPY METHOD USING SAME” (priority 2017, published 2019):

System: GFP cells (GFP-H460)
Assay: Experiment using rat cannulation, counting GFP-cancer cells in blood
Type: in vivo
Settings: cells pretreated with 100 μM RB, injected IV into SD rats, 473 nm 80 mW for 5 minutes at cannulated tubing
Experimental: (1) GFP cells (GFP-H460) were seeded into two 100-mm dishes at a concentration of 1×10^7 cells/ml. On the next day, 100 μM of rose bengal (RB) was applied thereto (in the subsequent procedure, light exposure was avoided as much as possible). In 4 hours after RB treatment, the cells were harvested using trypsin, suspended in FBS pre-culture medium at 2×10^6 cells/300 μl, and placed in a 1.5 ml tube.
Six out of 10 8 weeks aged SD rats were injected in IV (tail) manner with the cell solution. The […] sections of the 5 SD rats were incised. The carotid artery and venous vein were discovered and cannulated using a 279 μm ID×609 μm OD×152 μm wall sized polyethylene tubing (BD, 427401) wet with heparin. Thus, blood flow was carried out through the tubing. Irradiation of 473 nm light with an intensity of 80 mW to the cannulated tubing site was performed for 5 minutes. The irradiated rats were weighed and incubated overnight in a constant-temperature constant-humid chamber. […]
1 ml of 0.1 μg/ml DAPI/PBST solution was added thereto. […] GFP-cancer cells were counted using a fluorescent microscope (Nikon, Diaphot 300), and the numbers of GFP-cancer cells according to the presence or absence of light irradiation were compared with each other. […]

O=C1OC2(c3cc(I)c(O)c(I)c3Oc3c2cc(I)c(O)c3I)c2c(Cl)c(Cl)c(Cl)c(Cl)c21 [RB, rose bengal] was tested, and the “GFP-cancer cells in blood with or without light irradiation” value was “only GFP cells were specifically killed”.
